Reference: ChEMBL document CHEMBL2412960, “Inhibition of Mycobacterium tuberculosis strains H37Rv and MDR MS-115 by a new set of C5 modified pyrimidine nucleosides” (Bioorg Med Chem, 2013)
≈ marks a conversion by molar mass, not a printed value. Calls of active or inactive are those of the source. The rule behind the calls is not given here.

Legend:
[1] = tested on: Mycobacterium tuberculosis; assay: Bacteriostatic activity against Mycobacterium tuberculosis H37Rv assessed as growth inhibition; type: functional
[2] = tested on: Mycobacterium tuberculosis; assay: Bacteriostatic activity against Mycobacterium tuberculosis H37Rv assessed as growth inhibition at 5 ug/mL relative to control; type: functional; conditions: read-out: GI
[3] = tested on: Mycobacterium tuberculosis; assay: Bacteriostatic activity against Mycobacterium tuberculosis H37Rv assessed as growth inhibition at 10 ug/mL relative to control; type: functional; conditions: read-out: GI
[4] = tested on: Mycobacterium tuberculosis; assay: Bacteriostatic activity against Mycobacterium tuberculosis H37Rv assessed as growth inhibition at 50 ug/mL relative to control; type: functional; conditions: read-out: GI
[5] = tested on: Mycobacterium tuberculosis; assay: Bacteriostatic activity against Mycobacterium tuberculosis H37Rv assessed as growth inhibition at 100 ug/mL relative to control; type: functional; conditions: read-out: GI
[6] = tested on: Mycobacterium tuberculosis; assay: Bacteriostatic activity against Mycobacterium tuberculosis H37Rv assessed as growth inhibition at 20 ug/mL relative to control; type: functional; conditions: read-out: GI
[7] = Cytotoxicity against human A549 cells after 72 hrs by MTT assay; type: cell-based; conditions: read-out: CD50
[8] = Cytotoxicity against human Jurkat cells after 72 hrs by MTT assay; type: cell-based; conditions: read-out: CD50
[9] = Cytotoxicity against African green monkey Vero cells after 72 hrs by MTT assay; type: cell-based; conditions: chlorocebus sabaeus, read-out: CD50
Saccharomyces cerevisiae = assay: Antifungal activity against Saccharomyces cerevisiae RIA 259; type: functional, organism-based
Aspergillus niger = assay: Antifungal activity against Aspergillus niger INA 00760; type: functional, organism-based
Pseudomonas aeruginosa = assay: Antibacterial activity against Pseudomonas aeruginosa ATCC 27853; type: functional, organism-based
Escherichia coli = assay: Antibacterial activity against Escherichia coli ATCC 25922; type: functional, organism-based
Staphylococcus aureus [10] = assay: Antibacterial activity against methicillin-resistant Staphylococcus aureus INA 00761; type: functional, organism-based
[11] = tested on: Leuconostoc mesenteroides; assay: Antibacterial activity against vancomycin-resistant Leuconostoc mesenteroides VKPM B-4177; type: functional
Staphylococcus aureus [12] = assay: Antibacterial activity against methicillin-susceptible Staphylococcus aureus FDA 209P; type: functional, organism-based
Micrococcus luteus = assay: Antibacterial activity against Micrococcus luteus NCTC 8340; type: functional, organism-based
Bacillus mycoides = assay: Antibacterial activity against Bacillus mycoides 537; type: functional, organism-based
Bacillus pumilus = assay: Antibacterial activity against Bacillus pumilus NCTC 8241; type: functional, organism-based
Bacillus subtilis = assay: Antibacterial activity against Bacillus subtilis ATCC 6633; type: functional, organism-based
[13] = tested on: Mycobacterium tuberculosis; assay: Bacteriostatic activity against Mycobacterium tuberculosis H37Rv assessed as growth inhibition at 40 ug/mL relative to control; type: functional; conditions: read-out: GI
[14] = tested on: Mycobacterium tuberculosis; assay: Bacteriostatic activity against Mycobacterium tuberculosis H37Rv assessed as growth inhibition at 1 ug/mL relative to control; type: functional; conditions: read-out: GI
[15] = tested on: Mycobacterium tuberculosis; assay: Bacteriostatic activity against Mycobacterium tuberculosis H37Rv assessed as growth inhibition at 200 ug/mL relative to control; type: functional; conditions: read-out: GI

Compound | MIC99 [1] | inhibition of growth at 10 µg/mL [3] | inhibition of growth at 20 µg/mL [6] | CC50 at 72 h [7] | CC50 at 72 h [8] | CC50 at 72 h [9] | also measured
CCCCCCCCCCCCOCc1cn([C@H]2C[C@H](O)[C@@H](CN=[N+]=[N-])O2)c(=O)[nH]c1=O | 10 mg/L (≈ 22.1 µM) | 99% | 100% | 20 mg/L (≈ 44.3 µM) | 18 mg/L (≈ 39.9 µM) | > 100 mg/L | inhibition of growth at 5 µg/mL [2]: 75%; inhibition of growth at 50 µg/mL [4]: 100%; inhibition of growth at 100 µg/mL [5]: 100%
CCCCCCCCCCCCOCc1cn([C@H]2C[C@H](N)[C@@H](CO)O2)c(=O)[nH]c1=O | > 20 mg/L | 25% | 90% | 8 mg/L (≈ 18.8 µM) | 7 mg/L (≈ 16.4 µM) | 50 mg/L (≈ 117 µM) | –
CCCCCCCCCCCCc1cn(Cc2cn([C@H]3C[C@H](O)[C@@H](CO)O3)c(=O)nc2N)nn1 | 10 mg/L (≈ 21 µM) | 99% | 100% | 100 mg/L (≈ 210 µM) | 100 mg/L (≈ 210 µM) | > 100 mg/L | inhibition of growth at 5 µg/mL [2]: 75%
CCCCCCCCCCCOCc1cn([C@H]2C[C@H](O)[C@@H](CO)O2)c(=O)[nH]c1=O | 20 mg/L (≈ 48.5 µM) | – | 99% | 90 mg/L (≈ 218 µM) | 70 mg/L (≈ 170 µM) | > 100 mg/L | Activity (Saccharomyces cerevisiae): inactive; Activity (Aspergillus niger): inactive; Activity (Pseudomonas aeruginosa): inactive; Activity (Escherichia coli): inactive; Activity (Staphylococcus aureus [10]): inactive; Activity [11]: inactive; Activity (Staphylococcus aureus [12]): inactive; Activity (Micrococcus luteus): inactive; Activity (Bacillus mycoides): inactive; Activity (Bacillus pumilus): inactive; Activity (Bacillus subtilis): inactive; inhibition of growth at 40 µg/mL [13]: 100%
CC1COc2c(N3CCN(C)CC3)c(F)cc3c(=O)c(C(=O)O)cn1c23 (stereo unspecified) [OFLOXACIN] | 2 mg/L (≈ 5.53 µM) | – | – | – | – | – | –
CCCCCCCCCCOCc1cn([C@H]2C[C@H](O)[C@@H](CO)O2)c(=O)[nH]c1=O | 40 mg/L (≈ 100 µM) | – | – | – | – | > 100 mg/L | Activity (Saccharomyces cerevisiae): inactive; Activity (Aspergillus niger): inactive; Activity (Pseudomonas aeruginosa): inactive; Activity (Escherichia coli): inactive; Activity (Staphylococcus aureus [10]): inactive; Activity [11]: inactive; Activity (Staphylococcus aureus [12]): inactive; Activity (Micrococcus luteus): inactive; Activity (Bacillus mycoides): inactive; Activity (Bacillus pumilus): inactive; Activity (Bacillus subtilis): inactive; inhibition of growth at 40 µg/mL [13]: 99%
CO[C@H]1/C=C/O[C@@]2(C)Oc3c(C)c(O)c4c(O)c(c(/C=N/N5CCN(C)CC5)c(O)c4c3C2=O)NC(=O)/C(C)=C\C=C\[C@H](C)[C@H](O)[C@@H](C)[C@@H](O)[C@@H](C)[C@H](OC(C)=O)[C@@H]1C [RIFAMPIN] | 1 mg/L (≈ 1.22 µM) | – | – | – | – | > 500 mg/L | inhibition of growth at 1 µg/mL [14]: 100%
CCCCCCCCCCCCOCc1cn([C@H]2C[C@H](O)[C@@H](CO)O2)c(=O)nc1N | 200 mg/L (≈ 470 µM) | – | – | 45 mg/L (≈ 106 µM) | 37 mg/L (≈ 86.9 µM) | > 100 mg/L | inhibition of growth at 200 µg/mL [15]: 100%
CCCCCCCCCCCCOCc1cn([C@H]2C[C@H](O)[C@@H](CO)O2)c(=O)[nH]c1=O | 20 mg/L (≈ 46.9 µM) | 90% | 100% | 100 mg/L (≈ 234 µM) | 100 mg/L (≈ 234 µM) | > 100 mg/L | Activity (Saccharomyces cerevisiae): inactive; Activity (Aspergillus niger): inactive; Activity (Pseudomonas aeruginosa): inactive; Activity (Escherichia coli): inactive; Activity (Staphylococcus aureus [10]): inactive; Activity [11]: inactive; Activity (Staphylococcus aureus [12]): inactive; Activity (Micrococcus luteus): inactive; Activity (Bacillus mycoides): inactive; Activity (Bacillus pumilus): inactive; Activity (Bacillus subtilis): inactive; inhibition of growth at 5 µg/mL [2]: 25%; inhibition of growth at 50 µg/mL [4]: 100%; inhibition of growth at 100 µg/mL [5]: 100%
CCCCCCCCCCc1cn(Cc2cn([C@H]3C[C@H](O)[C@@H](CO)O3)c(=O)nc2N)nn1 | 40 mg/L (≈ 89.2 µM) | – | 90% | 100 mg/L (≈ 223 µM) | 100 mg/L (≈ 223 µM) | > 100 mg/L | inhibition of growth at 40 µg/mL [13]: 100%
CCCCCCCCCCCCOCc1cn([C@H]2C[C@H](N(CC)CC)[C@@H](CO)O2)c(=O)[nH]c1=O | 20 mg/L (≈ 41.5 µM) | 75% | 99% | 5 mg/L (≈ 10.4 µM) | 5 mg/L (≈ 10.4 µM) | 7.5 mg/L (≈ 15.6 µM) | inhibition of growth at 50 µg/mL [4]: 100%; inhibition of growth at 100 µg/mL [5]: 100%
